Laboratory results as given in patent publication US20250161501A1, “Radiolabeled Compounds for Imaging of Fibroblast Activation Protein (FAP) and Treatment of FAP-Related Disorders” (Provincial Health Services Authority, priority 2022, published 2025).

Tests used:
FAP = target: T1, FAP (Homo sapiens, UniProt Q12884); conditions: literature [25]; cited from earlier work
T1 sequence (Q12884 1-760): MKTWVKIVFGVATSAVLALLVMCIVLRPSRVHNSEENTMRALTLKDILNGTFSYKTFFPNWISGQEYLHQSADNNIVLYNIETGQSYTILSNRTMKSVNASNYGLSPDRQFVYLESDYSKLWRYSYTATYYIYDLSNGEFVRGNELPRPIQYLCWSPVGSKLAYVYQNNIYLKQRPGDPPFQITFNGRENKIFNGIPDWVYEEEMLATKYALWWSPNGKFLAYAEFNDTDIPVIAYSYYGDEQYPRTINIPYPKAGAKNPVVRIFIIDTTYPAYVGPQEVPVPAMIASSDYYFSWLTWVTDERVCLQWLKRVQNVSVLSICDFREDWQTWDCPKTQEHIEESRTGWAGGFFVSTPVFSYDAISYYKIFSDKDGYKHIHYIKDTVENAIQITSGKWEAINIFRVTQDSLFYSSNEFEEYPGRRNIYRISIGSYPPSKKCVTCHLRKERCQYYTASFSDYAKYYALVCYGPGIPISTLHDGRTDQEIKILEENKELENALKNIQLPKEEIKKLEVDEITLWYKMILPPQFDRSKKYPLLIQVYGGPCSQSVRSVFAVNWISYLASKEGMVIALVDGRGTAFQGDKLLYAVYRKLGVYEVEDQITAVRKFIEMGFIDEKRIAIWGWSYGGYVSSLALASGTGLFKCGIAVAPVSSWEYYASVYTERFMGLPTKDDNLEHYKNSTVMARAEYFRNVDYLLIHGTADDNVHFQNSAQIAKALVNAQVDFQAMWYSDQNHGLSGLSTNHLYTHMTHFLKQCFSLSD

[1] = system: HEK293T:hFAP tumor xenografts; assay: Ex vivo biodistribution of 68Ga-labeled tracers in HEK293T:hFAP tumor-bearing mice; conditions: HEK293T:hFAP tumor xenograft mice, 1 h post-injection, Table 5, mean±SD
Description: All imaging and biodistribution studies were performed using male NOD-scidIL2Rg^null (NRG) mice and conducted according to the guidelines established by the Canadian Council on Animal Care and approved by Animal Ethics Committee of the University of British Columbia. For tumor inoculations, mice were anesthetized by inhalation with 2% isoflurane in oxygen and implanted subcutaneously with 7.5×10^6 HEK293T:hFAP or U87 cells below the left shoulder. Imaging and biodistribution studies were performed only after tumors grew to 5-8 mm in diameter.
For ex vivo biodistribution studies, mice were injected with -1-3 MBq of the ^68Ga-labeled tracer. Mice were allowed to recover and roam freely in the cages after injecting the tracer. […] The uptake in each organ/tissue was normalized to the injected dose and expressed as the percentage of the injected dose per gram of tissue (% ID/g).
Biodistribution data for ^68Ga-SB03178, ^68Ga-SB04033, and ^68Ga-FAPI-4 in mice bearing FAP tumor xenografts are presented in Tables 5-7. Data are presented as mean±SD % ID/g.

Structure (SMILES): N#C[C@@H]1CC(F)(F)CN1C(=O)CNC(=O)c1ccnc2ccc(OCCCN3CCN(C(=O)CN4CCN(CC(=O)O)CCN(CC(=O)O)CCN(CC(=O)O)CC4)CC3)cc12 [^68Ga-FAPI-4, metal not drawn, reference compound]
- Tumor uptake over time (FAP): reduced quickly over time
- Biodistribution: Adrenal Glands [1]: 1.09 ± 0.31 % ID/g
- Biodistribution: Blood [1]: 1.09 ± 0.08 % ID/g
- Biodistribution: Bone [1]: 3.39 ± 1.03 % ID/g
- Biodistribution: Brain [1]: 0.05 ± 0.01 % ID/g
- Biodistribution: Fat [1]: 0.11 ± 0.02 % ID/g
- Biodistribution: Heart [1]: 0.35 ± 0.03 % ID/g
- Biodistribution: Kidneys [1]: 1.86 ± 0.10 % ID/g
- Biodistribution: Liver [1]: 0.37 ± 0.02 % ID/g
- Biodistribution: Lungs [1]: 0.75 ± 0.09 % ID/g
- Biodistribution: Muscle [1]: 0.68 ± 0.04 % ID/g
- Biodistribution: Pancreas [1]: 0.38 ± 0.04 % ID/g
- Biodistribution: Spleen [1]: 0.57 ± 0.13 % ID/g
- Biodistribution: Stomach [1]: 0.07 ± 0.02 % ID/g
- Biodistribution: Testes [1]: 0.29 ± 0.04 % ID/g
- Biodistribution: Tumor [1]: 12.7±2.19 % ID/g
